Assay results as given in patent publication US8198299B2, “Cycloalkylidene and heterocycloalkylidene inhibitor compounds” (Gilead Sciences, Inc., priority 2008, dated 2012).

biological target: HDAC 1 (Homo sapiens, UniProt Q13547); assay: HDAC 1 inhibition assay with about 3-hour enzyme/compound preincubation (fluorophore/quencher peptide substrate); format: biochemical; conditions: 3-hour preincubation of enzyme and compound at room temperature; read-out: HDAC 1 inhibitory activity (IC50 [μM]) (3-hour preincubation)
Description: HDAC inhibitory activity of the compound of Example 1 was measured by two types of assays in which HDAC 1 and 6 were used as a target molecule. The first assay was carried out without preincubation after addition of the enzyme. The test compound was suspended in and titrated in DMSO. It was then spotted into a 384-well test plate. The enzyme, HDAC 1 or 6, was diluted in assay buffer containing 25 mM Tris-HCl (pH 8.0), 137 mM NaCl, 2.7 mM KCl, and 0.01% Tween-20 and added to the pre-spotted compound. The peptide substrate containing a fluorophore/quencher pair was diluted in the same assay buffer and added to the compound/enzyme mix initiating the reaction. The reaction incubated at room temperature for about 45 minutes. A concentrated developer solution was diluted in the assay buffer, and added to the reaction. The reaction was incubated at room temperature for about 15 minutes and relative fluorescence was read on an instrument reader.
The second assay is similar to the first assay described above, except that preincubation is carried out for about 3 hours after the enzyme is introduced. The test compound was suspended in, and titrated in DMSO. It was then spotted into a 384-well test plate. The enzyme, HDAC 1 or 6, was diluted in the same assay buffer as used in the previous assay and added to the pre-spotted compound. The enzyme/compound mix was incubated at room temperature for about 3 hours. The peptide substrate containing a fluorophore/quencher pair was diluted in the assay buffer and added to the compound/enzyme mix initiating the reaction. The reaction incubated at room temperature for 45 minutes. A concentrated developer solution was diluted in the assay buffer, and added to the reaction. The reaction was incubated at room temperature for about 15 minutes and relative fluorescence was read on an instrument reader.

Sequence of HDAC 1 (Q13547 whole entry, species assumed): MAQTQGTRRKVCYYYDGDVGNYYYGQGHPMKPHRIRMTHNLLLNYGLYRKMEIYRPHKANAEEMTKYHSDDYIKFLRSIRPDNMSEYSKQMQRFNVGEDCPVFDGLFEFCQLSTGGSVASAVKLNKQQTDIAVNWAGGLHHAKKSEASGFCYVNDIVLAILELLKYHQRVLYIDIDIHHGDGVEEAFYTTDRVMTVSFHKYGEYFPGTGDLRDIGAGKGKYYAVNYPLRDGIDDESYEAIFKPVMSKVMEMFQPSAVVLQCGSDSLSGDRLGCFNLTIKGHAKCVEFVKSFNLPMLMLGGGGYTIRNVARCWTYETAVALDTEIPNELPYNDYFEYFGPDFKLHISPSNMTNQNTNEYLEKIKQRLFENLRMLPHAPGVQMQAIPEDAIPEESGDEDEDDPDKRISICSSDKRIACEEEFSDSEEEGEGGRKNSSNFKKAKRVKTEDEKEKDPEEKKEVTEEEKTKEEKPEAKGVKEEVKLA

Compound	IC50
Cc1nc2ccccn2c1-c1csc(C2(c3ccc(C(=O)NO)cc3)CC2)n1 [Example 2, N-hydroxy-4-{1-[4-(2-methyl-imidazo[1,2-a]pyridin-3-yl)-thiazol-2-yl]-cyclopropyl}-benzamide]	0.024 µM
CC(=O)c1sc(C2(c3ccc(C(=O)Nc4ccccc4N)cc3)CC2)nc1C [Example 3, 4-[1-(5-Acetyl-4-methyl-thiazol-2-yl)-cyclopropyl]-N-(2-amino-phenyl)-benzamide]	0.065 µM
Cc1nc(C2(c3ccc(C(=O)Nc4ccccc4N)cc3)CC2)sc1C(=O)N(C)C [Example 4, 2-(1-(4-(2-aminophenylcarbamoyl)phenyl)cyclopropyl)-N,N-4-trimethylthiazole-5-carboxamide]	0.331 µM
Cc1nc2ccccn2c1-c1csc(C2(c3ccc(C(=O)Nc4ccccc4N)cc3)CCCC2)n1 [Example 7]	0.008 µM
CC(C)NC(=O)c1csc(C2(c3ccc(C(=O)Nc4ccccc4N)cc3)CC2)n1 [Example 10, 2-(1-(4-(2-aminophenylcarbamoyl)phenyl)cyclopropyl)-N-isopropylthiazole-4-carboxamide]	0.279 µM
Nc1ccccc1NC(=O)c1ccc(C2(c3nc4c(s3)CCCC4)CC2)cc1 [Example 11, N-(2-amino-phenyl)-4-[1-(4,5,6,7-tetrahydro-benzothiazol-2-yl)-cyclopropyl]-benzamide]	0.069 µM
CCOC(=O)N1CCc2nc(C3(c4ccc(C(=O)Nc5ccccc5N)cc4)CC3)sc2C1 [Example 12]	0.016 µM
Cc1csc(C2(c3ccc(C(=O)Nc4ccccc4N)cc3)CC2)n1 [Example 16, N-(2-aminophenyl)-4-(1-(4-methylthiazol-2-yl)cyclopropyl)benzamide]	0.0988 µM
CC(C)[C@H](N)C(=O)N1CCc2nc(C3(c4ccc(C(=O)Nc5ccccc5N)cc4)CC3)sc2C1 [Example 17, (S)-4-(1-(5-(2-amino-3-methylbutanoyl)-4,5,6,7-tetrahydrothiazolo[5,4-c]pyridin-2-yl)cyclopropyl)-N-(2-aminophenyl)benzamide]	0.0982 µM
CN1CCc2nc(C3(c4ccc(C(=O)Nc5cc(-c6cccs6)ccc5N)cc4)CCOCC3)sc2C1 [Example 21, N-(2-amino-5-(thiophen-2-yl)phenyl)-4-(4-(5-methyl-4,5,6,7-tetrahydrothiazolo[5,4-c]pyridin-2-yl)tetrahydropyran-4-yl)benzamide]	0.006 µM
Nc1ccccc1NC(=O)c1ccc(C2(c3nc4c(s3)COCC4)CCOCC2)cc1 [Example 26, N-(2-aminophenyl)-4-(4-(6,7-dihydropyrano[4,3-d]thiazol-2-yl)tetrahydropyran-4-yl)benzamide]	0.017 µM
CC(=O)N1CCc2nc(C3(c4ccc(C(=O)Nc5ccccc5N)cc4)CCOCC3)sc2C1 [Example 27, 4-(4-(5-acetyl-4,5,6,7-tetrahydrothiazolo[5,4-c]pyridin-2-yl)tetrahydropyran-4-yl)-N-(2-aminophenyl)benzamide]	0.019 µM
CC(=O)N1CCc2nc(C3(c4ccc(C(=O)Nc5cc(-c6cccs6)ccc5N)cc4)CCOCC3)sc2C1 [Example 28, 4-(4-(5-acetyl-4,5,6,7-tetrahydrothiazolo[5,4-c]pyridin-2-yl)tetrahydropyran-4-yl)-N-(2-amino-5-(thiophen-2-yl)phenyl)benzamide]	0.0026 µM
CN1CCc2nc(C3(c4ccc(C(=O)Nc5ccccc5N)cc4)CCOCC3)sc2C1 [Example 29, N-(2-aminophenyl)-4-(4-(5-methyl-4,5,6,7-tetrahydrothiazolo[5,4-c]pyridin-2-yl)tetrahydropyran-4-yl)benzamide]	0.032 µM
CN1CCc2nc(C3(c4ccc(C(=O)Nc5cc(F)ccc5N)cc4)CCOCC3)sc2C1 [Example 30, N-(2-amino-5-fluorophenyl)-4-(4-(5-methyl-4,5,6,7-tetrahydrothiazolo[5,4-c]pyridin-2-yl)tetrahydropyran-4-yl)benzamide]	0.067 µM

Other lines, results leading:

IC50	Compound
0.0239 µM	Cc1nc2ccccn2c1-c1csc(C2(c3ccc(C(=O)Nc4ccccc4N)cc3)CC2)n1 [Example 1, N-(2-amino-phenyl)-4-{1-[4-(2-methyl-imidazo[1,2-a]pyridin-3-yl)-thiazol-2-yl]-cyclopropyl}-benzamide]
0.012 µM	Nc1ccccc1NC(=O)c1ccc(C2(c3nc(-c4cccnc4)cs3)CC2)cc1 [Example 5, N-(2-Amino-phenyl)-4-[1-(4-pyridin-3-yl-thiazol-2-yl)-cyclopropyl]-benzamide]
0.012 µM	Nc1ccccc1NC(=O)c1ccc(C2(c3nc(-c4cccnc4)cs3)CCCC2)cc1 [Example 6, N-(2-Amino-phenyl)-4-[1-(4-pyridin-3-yl-thiazol-2-yl)-cyclopentyl]-benzamide]
0.037 µM	Nc1ccccc1NC(=O)c1ccc(C2(c3nc(-c4cccnc4)cs3)CCOCC2)cc1 [Example 8, N-(2-Amino-phenyl)-4-[4-(4-pyridin-3-yl-thiazol-2-yl)-tetrahydro-pyran-4-yl]-benzamide]
0.003 µM	Cc1nc2ccccn2c1-c1csc(C2(c3ccc(C(=O)Nc4ccccc4N)cc3)CCOCC2)n1 [Example 9, N-(2-Amino-phenyl)-4-{4-[4-(2-methyl-imidazo[1,2-a]pyridin-3-yl)-thiazol-2-yl]-tetrahydro-pyran-4-yl}-benzamide]
0.119 µM	Nc1ccccc1NC(=O)c1ccc(C2(c3nccs3)CCOCC2)cc1 [Example 15]
0.0139 µM	Nc1ccccc1NC(=O)c1ccc(C2(c3nc(-c4ccc(Cl)nc4)cs3)CCOCC2)cc1 [Example 18, N-(2-aminophenyl)-4-(4-(4-(6-chloropyridin-3-yl)thiazol-2-yl)tetrahydropyran-4-yl)benzamide]
0.0518 µM	Nc1ccc(F)cc1NC(=O)c1ccc(C2(c3nc(-c4cccnc4)cs3)CC2)cc1 [Example 19, N-(2-Amino-5-fluoro-phenyl)-4-[1-(4-pyridin-3-yl-thiazol-2-yl)-cyclopropyl]-benzamide]
0.019 µM	Nc1ccccc1NC(=O)c1ccc(C2(c3nc(-c4ccc(N5CCCC5)nc4)cs3)CCOCC2)cc1 [Example 20, N-(2-aminophenyl)-4-(4-(4-(6-(pyrrolidin-1-yl)pyridin-3-yl)thiazol-2-yl)tetrahydropyran-4-yl)benzamide]
0.014 µM	Nc1ccc(-c2cccs2)cc1NC(=O)c1ccc(C2(c3nc(-c4cccnc4)cs3)CCOCC2)cc1 [Example 22, N-(2-amino-5-(thiophen-2-yl)phenyl)-4-(4-(4-(pyridin-3-yl)thiazol-2-yl)tetrahydropyran-4-yl)benzamide]
0.032 µM	Nc1ccc(F)cc1NC(=O)c1ccc(C2(c3nc(-c4cccnc4)cs3)CCOCC2)cc1 [Example 23, N-(2-amino-5-fluorophenyl)-4-(4-(4-(pyridin-3-yl)thiazol-2-yl)tetrahydropyran-4-yl)benzamide]
0.013 µM	COCCOc1ccc(-c2csc(C3(c4ccc(C(=O)Nc5ccccc5N)cc4)CCOCC3)n2)cn1 [Example 24, N-(2-aminophenyl)-4-(4-(4-(6-(2-methoxyethoxy)pyridin-3-yl)thiazol-2-yl)tetrahydropyran-4-yl)benzamide]
0.006 µM	CN1CCN(c2ccc(-c3csc(C4(c5ccc(C(=O)Nc6ccccc6N)cc5)CCOCC4)n3)cn2)CC1 [Example 25, N-(2-aminophenyl)-4-(4-(4-(6-(4-methylpiperazin-1-yl)pyridin-3-yl)thiazol-2-yl)tetrahydropyran-4-yl)benzamide]
